Reference: patent publication US9399646B2 (Genentech, Inc., priority 2010, dated 2016)

Tests used:
ER-α in MCF-7 cells = target: T1, ER-α in MCF-7 cells (Homo sapiens, UniProt P03372); experiment: Breast cancer cell ER-α in cell western assay (SP1); format: cell-based; parameters: endogenous in cells; host or cells: MCF-7; settings: 4 or 24 hr post compound addition; for Emax: MCF7, SP1 antibody, read-out: ER-α In Cell Western Assay (SP1) Max Response; for DC50: SP1 antibody, read-out: ER-α In Cell Western Assay (SP1) IC50
T1 sequence (P03372 1-595): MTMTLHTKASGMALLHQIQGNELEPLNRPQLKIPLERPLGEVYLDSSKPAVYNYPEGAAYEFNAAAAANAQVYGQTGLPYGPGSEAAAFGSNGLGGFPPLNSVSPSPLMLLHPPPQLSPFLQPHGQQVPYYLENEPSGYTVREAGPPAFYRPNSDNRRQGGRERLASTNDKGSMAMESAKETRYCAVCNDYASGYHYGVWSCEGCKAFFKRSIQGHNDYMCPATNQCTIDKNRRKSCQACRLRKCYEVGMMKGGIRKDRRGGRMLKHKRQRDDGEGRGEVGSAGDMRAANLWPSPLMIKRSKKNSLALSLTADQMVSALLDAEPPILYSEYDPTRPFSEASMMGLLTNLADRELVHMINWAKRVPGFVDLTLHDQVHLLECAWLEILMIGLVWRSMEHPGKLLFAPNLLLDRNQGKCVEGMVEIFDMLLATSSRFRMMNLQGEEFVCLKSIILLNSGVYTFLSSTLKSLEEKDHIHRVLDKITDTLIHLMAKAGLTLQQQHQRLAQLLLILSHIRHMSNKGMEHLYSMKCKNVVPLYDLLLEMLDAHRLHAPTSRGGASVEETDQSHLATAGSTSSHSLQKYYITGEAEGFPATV
Method: MCF-7 cells were adjusted to a concentration of 200,000 cells per mL in RPMI containing 10% charcoal-stripped FBS and 20 mM HEPES. 16 microliters of the cell suspension (3200 cells) was added to each well of a poly-D-lysine 384 well plate, and the cells were incubated overnight to allow the cells to adhere. The following day an eleven point, serial semilog dilution of each compound was added to the cells in 16 μL at a final concentration ranging from 0.3-0.000003 μM. At 4 or 24 hr post compound addition, the cells were fixed (10% formalin in PBS) for 20 minutes. Cells were permeablized in PBS 0.1% Triton and blocked with LICOR blocking buffer (50 μl/well, 90°). The wells were then incubated overnight at 4° C. with SP1 rabbit monoclonal Ab (Thermo Scientific) diluted 1:1000 in LICOR blocking buffer/0.1% Tween-20. Wells which were treated with blocking buffer with Tween but no antibody were used as a background control. Wells were washed with 0.1% Tween-20/PBS and then incubated in goat anti-rabbit IRDye™ 800CW (LICOR Inc.; 1:1000) and DRAQ5 DNA dye (1:2000 for 2 mM stock) diluted in LICOR blocking buffer containing 0.1% Tween-20 and 0.01% SDS for 60 minutes. Cells were washed (50 μl/well, 5′ each) in 0.1% Tween-20/PBS. Plates were scanned on a LICOR Odyssey infrared imaging system. Integrated intensities in the 800 nm channel and 700 nm channel were measured to determine levels of ER and DNA respectively. Percent ER levels were determined as follows: (Integrated intensity 800 nm sample/integrated intensity 700 nm sample)/(Integrated intensity 800 nm untreated cells/integrated intensity 700 nm untreated cells)×100=% ER levels.

MCF-7 cells = experiment: Breast cancer cell viability assay (CellTiter-Glo, 5 days); format: cell-based; settings: 5 days' compound exposure; for IC50: Homo sapiens, MCF7, 120 h
Method: MCF-7 cells were adjusted to a concentration of 20,000 cells per mL in RPMI containing 10% FBS and 20 mM HEPES. 16 microliters of the cell suspension (320 cells) was added to each well of a 384 well plate, and the cells were incubated overnight to allow the cells to adhere. The following day an eleven point, serial semilog dilution of each compound was added to the cells in 16 μL at a final concentration ranging from 0.3-0.000003 μM. After 5 days' compound exposure, 16 μL of CellTiter-GLo (Promega, Madison Wis.) was added to the cells the relative luminescence units (RLUs) of each well was determined CellTiter-Glo added to 32 μL of medium without cells was used to obtain a background value. The Percent viability of each sample was determined as follows: (RLU sample-RLU background/RLU untreated cells-RLU background)×100=% viability.

For CC/C(=C(/c1ccc(/C=C/C(=O)O)cc1)c1ccc2[nH]nnc2c1)c1ccccc1 [Compound 3, (E)-3-(4-((E)-1-(1H-Benzo[d][1,2,3]triazol-5-yl)-2-phenylbut-1-en-1-yl)phenyl)acrylic acid], the Emax (ER-α in MCF-7 cells) was ≥ 40%, the “MCF7 Viability Assay Max Response” value (MCF-7 cells) was “++ (++ = a single % value ≧ 40%)” and the IC50 (MCF-7 cells) was ≤ 100 nM.

For CC/C(=C(/c1ccc(/C=C/C(=O)O)cc1)c1ccc2cn[nH]c2c1)c1ccccc1 [Compound 5, (E)-3-(4-((E)-1-(1H-Indazol-6-yl)-2-phenylbut-1-en-1-yl)phenyl)acrylic acid], the Emax (ER-α in MCF-7 cells) was ≥ 40%, the “MCF7 Viability Assay Max Response” value (MCF-7 cells) was “++ (++ = a single % value ≧ 40%)” and the IC50 (MCF-7 cells) was > 100 nM.

CC/C(=C(/c1ccc(/C=C/C(=O)O)cc1)c1cccc2[nH]ncc12)c1ccccc1 [Compound 18, (E)-3-(4-((E)-1-(1H-Indazol-4-yl)-2-phenylbut-1-en-1-yl)phenyl)acrylic acid] was tested, and the Emax (ER-α in MCF-7 cells) was ≥ 40%, the “MCF7 Viability Assay Max Response” value (MCF-7 cells) was “++ (++ = a single % value ≧ 40%)” and the IC50 (MCF-7 cells) was ≤ 100 nM.

In the case of CC/C(=C(/c1ccc(/C=C/C(=O)O)cc1)c1cccc2[nH]ncc12)c1ccccc1C [Compound 21, (E)-3-(4-((E)-1-(1H-Indazol-4-yl)-2-(o-tolyl)but-1-en-1-yl)phenyl)acrylic acid], the Emax (ER-α in MCF-7 cells) is reported as ≥ 40%, the DC50 (ER-α in MCF-7 cells) is reported as ≤ 100 nM and the “MCF7 Viability Assay Max Response” value (MCF-7 cells) is reported as “++ (++ = a single % value ≧ 40%)”. For the same compound, the IC50 (MCF-7 cells) was ≤ 100 nM.

For CC/C(=C(/c1ccc(/C=C/C(=O)O)cc1)c1cccc2[nH]ncc12)c1ccccc1Cl [Compound 22, (E)-3-(4-((E)-2-(2-Chlorophenyl)-1-(1H-indazol-4-yl)but-1-en-1-yl)phenyl)acrylic acid], the Emax (ER-α in MCF-7 cells) was ≥ 40%, the DC50 (ER-α in MCF-7 cells) was ≤ 100 nM and the “MCF7 Viability Assay Max Response” value (MCF-7 cells) was “++ (++ = a single % value ≧ 40%)”. The IC50 (MCF-7 cells) was ≤ 100 nM.

With CC/C(=C(/c1ccc(/C=C/C(=O)O)cc1)c1ccc2[nH]ncc2c1)c1cccs1 [Compound 23, (E)-3-(4-((E)-1-(1H-Indazol-5-yl)-2-(thiophen-2-yl)but-1-en-1-yl)phenyl)acrylic acid] the Emax (ER-α in MCF-7 cells) was ≥ 40%, the DC50 (ER-α in MCF-7 cells) was ≤ 100 nM and the “MCF7 Viability Assay Max Response” value (MCF-7 cells) was “++ (++ = a single % value ≧ 40%)”. The IC50 (MCF-7 cells) was ≤ 100 nM.

For CC/C(=C(/c1ccc(/C=C/C(=O)O)cc1)c1ccc2[nH]ncc2c1)c1ccsc1 [Compound 24, (E)-3-(4-((E)-1-(1H-Indazol-5-yl)-2-(thiophen-3-yl)but-1-en-1-yl)phenyl)acrylic acid], the Emax (ER-α in MCF-7 cells) was ≥ 40%, the DC50 (ER-α in MCF-7 cells) was ≤ 100 nM and the “MCF7 Viability Assay Max Response” value (MCF-7 cells) was “++ (++ = a single % value ≧ 40%)”. The IC50 (MCF-7 cells) was ≤ 100 nM.

In the case of CC/C(=C(/c1ccc(/C=C/C(=O)O)cc1)c1ccc2[nH]ncc2c1)c1ccccn1 [Compound 25, (E)-3-(4-((E)-1-(1H-Indazol-5-yl)-2-(pyridin-2-yl)but-1-en-1-yl)phenyl)acrylic acid], the Emax (ER-α in MCF-7 cells) is reported as ≥ 40%, the DC50 (ER-α in MCF-7 cells) is reported as > 100 nM and the “MCF7 Viability Assay Max Response” value (MCF-7 cells) is reported as “++ (++ = a single % value ≧ 40%)”. The IC50 (MCF-7 cells) was > 100 nM.

For CC/C(=C(/c1ccc(/C=C/C(=O)O)cc1)c1ccc2[nH]ncc2c1)c1ccccc1-c1ccccc1 [Compound 28, (E)-3-(4-((E)-2-([1,1′-Biphenyl]-2-yl)-1-(1H-indazol-5-yl)but-1-en-1-yl)phenyl)acrylic acid], the Emax (ER-α in MCF-7 cells) was ≥ 40%, the DC50 (ER-α in MCF-7 cells) was > 100 nM and the “MCF7 Viability Assay Max Response” value (MCF-7 cells) was “++ (++ = a single % value ≧ 40%)”. The IC50 (MCF-7 cells) was > 100 nM.

CC/C(=C(/c1ccc(/C=C/C(=O)O)cc1)c1cccc2[nH]ncc12)c1ccc(F)cc1Cl [Compound 30, (E)-3-(4-((E)-2-(2-Chloro-4-fluorophenyl)-1-(1H-indazol-4-yl)but-1-en-1-yl)phenyl)acrylic acid] was tested, and the Emax (ER-α in MCF-7 cells) was ≥ 40%, the DC50 (ER-α in MCF-7 cells) was ≤ 100 nM and the “MCF7 Viability Assay Max Response” value (MCF-7 cells) was “++ (++ = a single % value ≧ 40%)”. The IC50 (MCF-7 cells) was ≤ 100 nM.

CC/C(=C(/c1ccc(/C=C/C(=O)O)cc1)c1cccc2[nH]ncc12)c1ccccc1F [Compound 31, (E)-3-(4-((E)-2-(2-Fluorophenyl)-1-(1H-indazol-4-yl)but-1-en-1-yl)phenyl)acrylic acid] was tested, and the Emax (ER-α in MCF-7 cells) was ≥ 40%, the DC50 (ER-α in MCF-7 cells) was ≤ 100 nM and the “MCF7 Viability Assay Max Response” value (MCF-7 cells) was “++ (++ = a single % value ≧ 40%)”. The IC50 (MCF-7 cells) was ≤ 100 nM.

For CC/C(=C(/c1ccc(/C=C/C(=O)O)cc1)c1ccc2[nH]ncc2c1)c1cccc2ccccc12 [Compound 50, (E)-3-(4-((E)-1-(1H-Indazol-5-yl)-2-(naphthalen-1-yl)but-1-en-1-yl)phenyl)acrylic acid], the Emax (ER-α in MCF-7 cells) was ≥ 40%, the DC50 (ER-α in MCF-7 cells) was ≤ 100 nM and the “MCF7 Viability Assay Max Response” value (MCF-7 cells) was “++ (++ = a single % value ≧ 40%)”. The IC50 (MCF-7 cells) was ≤ 100 nM.

In the case of CC/C(=C(/c1ccc(/C=C/C(=O)O)cc1)c1ccnc2[nH]ncc12)c1ccccc1 [Compound 56, (E)-3-(4-((E)-2-Phenyl-1-(1H-pyrazolo[3,4-b]pyridin-4-yl)but-1-en-1-yl)phenyl)acrylic acid], the Emax (ER-α in MCF-7 cells) is reported as ≥ 40%, the DC50 (ER-α in MCF-7 cells) is reported as ≤ 100 nM and the “MCF7 Viability Assay Max Response” value (MCF-7 cells) is reported as “++ (++ = a single % value ≧ 40%)”. The IC50 (MCF-7 cells) was > 100 nM.

With CC/C(=C(/c1ccc(/C=C/C(=O)O)cc1)c1ccc2[nH]ncc2c1)c1ccc(N(C)C)cc1 [Compound 62, (E)-3-(4-((E)-2-(4-(Dimethylamino)phenyl)-1-(1H-indazol-5-yl)but-1-en-1-yl)phenyl)acrylic acid] the Emax (ER-α in MCF-7 cells) was ≥ 40%, the DC50 (ER-α in MCF-7 cells) was > 100 nM and the “MCF7 Viability Assay Max Response” value (MCF-7 cells) was “++ (++ = a single % value ≧ 40%)”. The IC50 (MCF-7 cells) was > 100 nM.

In the case of CC/C(=C(/c1ccc(/C=C/C(=O)O)cc1)c1ccc2[nH]ccc2c1)c1ccccc1 [Compound 64, (E)-3-(4-((E)-1-(1H-Indol-5-yl)-2-phenylbut-1-en-1-yl)phenyl)acrylic acid], the Emax (ER-α in MCF-7 cells) is reported as ≥ 40%, the “MCF7 Viability Assay Max Response” value (MCF-7 cells) is reported as “++ (++ = a single % value ≧ 40%)” and the IC50 (MCF-7 cells) is reported as ≤ 100 nM.

CC/C(=C(/c1ccc(/C=C/C(=O)O)cc1)c1ccc2[nH]c(=O)oc2c1)c1ccccc1 [Compound 66, (E)-3-(4-((E)-1-(2-Oxo-2,3-dihydrobenzo[d]oxazol-6-yl)-2-phenylbut-1-en-1-yl)phenyl)acrylic acid] was tested, and the Emax (ER-α in MCF-7 cells) was ≥ 40%, the “MCF7 Viability Assay Max Response” value (MCF-7 cells) was “++ (++ = a single % value ≧ 40%)” and the IC50 (MCF-7 cells) was ≤ 100 nM.

For CC/C(=C(/c1ccc(/C=C/C(=O)O)cc1)c1cnc2[nH]ncc2c1)c1ccccc1 [Compound 67, (E)-3-(4-((E)-2-Phenyl-1-(1H-pyrazolo[3,4-b]pyridin-5-yl)but-1-en-1-yl)phenyl)acrylic acid], the Emax (ER-α in MCF-7 cells) was ≥ 40%, the DC50 (ER-α in MCF-7 cells) was > 100 nM and the “MCF7 Viability Assay Max Response” value (MCF-7 cells) was “++ (++ = a single % value ≧ 40%)”. For the same compound, the IC50 (MCF-7 cells) was > 100 nM.

CC/C(=C(/c1ccc(/C=C/C(=O)O)cc1)c1cnc2[nH]ccc2c1)c1ccccc1 [Compound 68, (E)-3-(4-((E)-2-Phenyl-1-(1H-pyrrolo[2,3-b]pyridin-5-yl)but-1-en-1-yl)phenyl)acrylic acid] was tested, and the Emax (ER-α in MCF-7 cells) was ≥ 40%, the DC50 (ER-α in MCF-7 cells) was > 100 nM and the “MCF7 Viability Assay Max Response” value (MCF-7 cells) was “++ (++ = a single % value ≧ 40%)”. For the same compound, the IC50 (MCF-7 cells) was > 100 nM.

CC/C(=C(/c1ccc(/C=C/C(=O)O)cc1)c1ccc2c(cnn2C(F)F)c1)c1ccc(F)cc1Cl [Compound 401, (E)-3-(4-((E)-2-(2-Chloro-4-fluorophenyl)-1-(1-(difluoromethyl)-1H-indazol-5-yl)but-1-en-1-yl)phenyl)acrylic acid] was tested, and the IC50 (MCF-7 cells) was > 100 nM.
